Test results as given in publication PMC8049364, “Quantification of Macrophage-Driven Inflammation During Myocardial Infarction with ^18F-LW223, a Novel TSPO Radiotracer with Binding Independent of the rs6971 Human Polymorphism” (Journal of Nuclear Medicine, 2021).

Target: T1, TSPO (Rattus norvegicus, UniProt P16257)
T1 construct: Thirty-three adult male Sprague–Dawley rats; from tissue; host or cells: living adult male Sprague-Dawley rats; heart, LV anterior wall, lung and brain VOIs
Assay: PET/CT imaging and 2-tissue-compartment kinetic modelling in naïve and PK11195-blocked rats
Format: in vivo
Parameters: K1 (2T analysis), mean / k2 (2T analysis), mean / k3 (2T analysis), mean / k4 (2T analysis), mean / VT (2T analysis), mean: unit not given here
Protocol: Thirty-two PET scans were performed with ^18F-LW223 (17.8 ± 1.5 MBq, intravenous bolus, mean ± SEM). Naïve and MI rat scans were acquired immediately after intravenous bolus injection of ^18F-LW223. […] Dosimetry studies were conducted using mice and 240-min PET scans.
A commercially available system (Twilite2; Swisstrace) was used for the measurement of blood radioactivity as previously described ([17]). The whole-blood arterial input function measured by the automatic blood sampler was corrected for the plasma–to–whole-blood ratio and for metabolism in vivo.
Data were acquired using a PET/CT small-animal scanner (nanoPET/CT; Mediso). A CT scan (semicircular full trajectory, maximum field of view, 480 projections, 50 kVp, 300 ms, and 1:4 binning) was acquired for attenuation correction. Immediately after radiotracer administration, a 120- or 240-min emission scan was obtained using 3-dimensional 1:5 mode. For rat studies, rebinning was 18 × 10 s, 2 × 30 s, 1 × 60 s, 2 × 2 min, 10 × 5 min, 6 × 10 min, or 18 × 10 min. For mouse studies, rebinning was 4 × 5 min, 4 × 10 min, or 9 × 20 min. Rat PET studies were reconstructed using the iterative Tera-Tomo 3-dimensional reconstruction algorithm (Mediso), which includes point-spread correction, and the following settings: 4 iterations, 6 subsets, full detector model, low regularization, spike filter on, voxel size of 0.4 mm, and 400- to 600-keV energy window. Mouse dosimetry PET data were reconstructed using filtered backprojection, a voxel size of 0.4 mm, and a 400- to 600-keV energy window. All PET data were corrected for randoms, scatter, and attenuation.
Reconstructed scans were imported into PMOD, version 3.8 (PMOD Technologies). Volumes of interest (VOIs) were manually drawn around the brain, heart, and lung using CT images. To sample the infarct area (or an equivalent area in naïve hearts), averaged PET images (0–120 min) were used to place 3 spheric VOIs at the center of the infarct territory within the ventricular wall (1.5 mm^3). […] Time–activity curves were generated, and SUVs were calculated as concentration in the VOI divided by injected dose divided by animal weight. Kinetic modeling was performed using the 2-tissue-compartment model to estimate the kinetic rate constants K1–k4 and the total volume of distribution (VT) in different tissues. Blood volume fraction (VB) was not modeled in this study. Two-tissue-compartment modeling was selected as the preferred model on the basis of a comparison of goodness and robustness of fitting versus several other models (Supplemental Fig. 3; Supplemental Table 2). The binding potential relative to nondisplaceable volume (BPND) was defined as k3/k4 ([19]). The transfer-corrected BPND, termed BPTC, was formulated as follows:Eq. 1 BPTC=k3/k4÷K1,

[1] = Brain, Blocked Naive (PK11195, 1mg/kg) n = 3
[2] = Global Heart, Blocked Naive (PK11195, 1mg/kg) n = 3
[3] = LV Anterior Wall, Blocked Naive (PK11195, 1mg/kg) n = 3
[4] = Lung, Blocked Naive (PK11195, 1mg/kg) n = 3

K1 (2T analysis), mean [1]: 0.06
VT (2T analysis), mean [1]: 0.93
k2 (2T analysis), mean [1]: 0.11
k3 (2T analysis), mean [1]: 2.324
k3/k4 (2T analysis), mean [1]: 0.71
k4 (2T analysis), mean [1]: 2.33
K1 (2T analysis), mean (Brain, Naive n = 6): 0.14
VT (2T analysis), mean (Brain, Naive n = 6): 1.6
k2 (2T analysis), mean (Brain, Naive n = 6): 0.18
k3 (2T analysis), mean (Brain, Naive n = 6): 0.016
k3/k4 (2T analysis), mean (Brain, Naive n = 6): 1.22
k4 (2T analysis), mean (Brain, Naive n = 6): 0.01
K1 (2T analysis), mean [2]: 0.19
VT (2T analysis), mean [2]: 4.56
k2 (2T analysis), mean [2]: 0.23
k3 (2T analysis), mean [2]: 0.721
k3/k4 (2T analysis), mean [2]: 4.52
k4 (2T analysis), mean [2]: 0.13
K1 (2T analysis), mean (Global Heart, Naive n = 6): 0.58
VT (2T analysis), mean (Global Heart, Naive n = 6): 9.93
k2 (2T analysis), mean (Global Heart, Naive n = 6): 0.33
k3 (2T analysis), mean (Global Heart, Naive n = 6): 0.031
k3/k4 (2T analysis), mean (Global Heart, Naive n = 6): 4.77
k4 (2T analysis), mean (Global Heart, Naive n = 6): 0.01
K1 (2T analysis), mean [3]: 0.28
VT (2T analysis), mean [3]: 75.25
k2 (2T analysis), mean [3]: 0.08
k3 (2T analysis), mean [3]: 0.855
k3/k4 (2T analysis), mean [3]: 12.64
k4 (2T analysis), mean [3]: 0.23
K1 (2T analysis), mean (LV Anterior Wall, Naive n = 6): 0.9
VT (2T analysis), mean (LV Anterior Wall, Naive n = 6): 29.95
k2 (2T analysis), mean (LV Anterior Wall, Naive n = 6): 0.26
k3 (2T analysis), mean (LV Anterior Wall, Naive n = 6): 0.033
k3/k4 (2T analysis), mean (LV Anterior Wall, Naive n = 6): 7.99
k4 (2T analysis), mean (LV Anterior Wall, Naive n = 6): 0.00
K1 (2T analysis), mean [4]: 0.16
VT (2T analysis), mean [4]: 2.2
k2 (2T analysis), mean [4]: 0.35
k3 (2T analysis), mean [4]: 0.181
k3/k4 (2T analysis), mean [4]: 3.19
k4 (2T analysis), mean [4]: 0.05
K1 (2T analysis), mean (Lung, Naive n = 6): 0.94
VT (2T analysis), mean (Lung, Naive n = 6): 6.94
k2 (2T analysis), mean (Lung, Naive n = 6): 0.32
k3 (2T analysis), mean (Lung, Naive n = 6): 0.031
k3/k4 (2T analysis), mean (Lung, Naive n = 6): 1.38
k4 (2T analysis), mean (Lung, Naive n = 6): 0.02
specificity of in vivo binding to TSPO (PK11195 1 mg/kg intravenously, blocking and displacement): blocked and displaced by PK11195
BPTC (anterior wall of naïve animals): 10.0 ± 2.4 cm^3/mL/min
Peak SUV, brain (naïve rat): 0.83 ± 0.18 g/mL
SUVpeak, heart (rat): 2.5
SUVpeak, lung (rat): 4.0
VT in the brain (rat): 1.1–2.2 mL/cm^3
Structure (SMILES): CC[C@@H](C)N(C)C(=O)c1nc2ccccc2c(-c2ccccc2)c1C[18F] [^18F-LW223]
excretion routes (mice and rats): both the urinary and the hepatobiliary excretion routes
